Reference: EP0394112A2, “Use of dipyrido(4,3-b)(3,4-f) indoles for the preparation of medicaments for the treatment of AIDS” (INSTITUT NATIONAL DE LA SANTE ET DE LA RECHERCHE MEDICALE …, priority 1989, dated 1990)
Read-outs that look alike come from different tables or passages of the source.

Experiments:
virus HIV 1 [1] = test: Infectivity test on PHA-stimulated peripheral lymphocytes (viral production followed by RT activity); type: cell-based; details: 12,5 ng/ml
From the text: Les lymphocytes obtenus après stimulation à la PHA (Phytohémagglutinine) de cellules issues d'une cytaphérèse, ont été infectés par une dilution appropriée de virus HIV 1 afin d'obtenir un pic de production virale aux environs du quinzième jour après infection. Différentes doses du BD 40 ont été ajoutées au milieu de culture au moment de l'infection et pendant toute la culture afin de déterminer les doses toxiques et protectrices.
Pour déterminer le mécanisme d'action du composé, celui-ci a été ajouté à la culture soit pendant une période de préincubation des cellules avant infection, soit pendant toute la période de culture suivant l'infection.
Le suivi de la production virale des lymphocytes a été réalisé par dosage de l'activité de la transcriptase inverse dans la culture tous les 3 ou 4 jours.
Les résultats obtenus, avec le BD 40 à la concentration de 12,5 ng/ml, figurent sur les différentes courbes de la figure 2 qui expriment l'activité de la transcriptase inverse (RT en ordonnées) en fonction du temps en jours. • Fig. 2a : BD 40 ajouté pendant la période de préincubation des cellules avant infection. • Fig. 2b : BD 40 ajouté pendant la culture qui suit l'infection. • Fig. 2c : BD 40 ajouté à la culture, uniquement après l'infection. • Fig. 2d : Pas de BD 40. Contrôle HIV 1.

[2] = system: fibroblastes murins NIH - 3T3; details: 24 h treatment, NIH - 3T3 fibroblasts; read-out: concentrations affecting viabilité et morphologie des cellules de manière irréversible; cited from earlier work
[3] = target: T1, réverse transcriptase du virus HIV (Human immunodeficiency virus type 1 group M subtype B, UniProt P04585); test: Clinical trial: reverse transcriptase activity in blood cells of treated AIDS patients; type: in vivo
T1 construct: mesures de l'activité réverse transcriptase (RT) dans les cellules sanguines; from tissue; host or cells: blood cells of AIDS patients treated with BD 40
Description: Lors d'un essai clinique chez 12 malades souffrant d'un SIDA avéré avec sarcome de Kaposi traités par des injections de trichlorhydrate de BD 40 en perfusion à des doses comprises entre 50 et 300 mg/m²/jour par cures de 3 jours consécutifs à intervalles de 3 semaines, des mesures de l'activité réverse transcriptase (RT) dans les cellules sanguines ont été pratiquées avant administration et aux 4e et 15e jours après le début de chaque cure.
La technique de mesure est la même que celle utilisée dans les tests II et III ci-dessus. Les résultats obtenus sont les suivants : - 8 cures sont évaluables à l'égard des critères adoptés, c'est-à-dire dans la mesure où l'activité réverse transcriptase a été mesurable pour le malade considéré et où sa valeur au jour 4 de la cure est encadrée par des valeurs connues au jour 15 de la cure précédente et au jour 15 de la cure considérée; - sur ces 8 cures évaluables, dans 7 cas la valeur au jour 4 est inférieure aux valeurs qui l'encadrent indiquant l'existence d'un inhibition nette de la réverse transcriptase; - sur ces 7 cas, dans 4 d'entre eux l'activité réverse transcriptase est ramenée à 0 (ou à une valeur négligeable, non significativement différente de 0); - sur ces 7 cas, si l'on normalise les valeurs obtenues en les exprimant en % de la valeur la plus élevée mesurée pour le malade considéré, les moyennes obtenues sont les suivantes : - RT au J15 de la cure précédente : 72,3 - RT au J4 de la […] : 9,7 - RT au J15 de la cure considérée : 62,4 l'inhibition est donc très évidente au 4e jour de la cure; - ces 7 cas sont obtenus aux doses suivantes (en mg/m2/administration) 2 fois à 50, 3 fois à 200, 1 fois à 250 et 1 fois à 300.

virus HIV 1 [4] = type: cell-based
From the text: Les macrophages ont été isolés à partir du sang périphérique par adhérence. On les a infectés par du virus HIV 1 (de 5000 à 25000 cpm (RT en cpm par ml)). 3 à 7 jours après, les macrophages ont été éclatés par congélation/décongélation et le virus a été révélé par une coculture avec une lignée lymphoblastoïde (CEM ou lymphocytes du sang périphérique).
Différentes doses de trichlorhydrate de BD 40 (ci-après BD 40) ont été testées, le produit étant ajouté au milieu de culture au moment de l'infection.

[5] = target: T2, transcriptase inverse du virus HIV 1 (Human immunodeficiency virus type 1 group M subtype B, UniProt P04585); test: Reverse transcriptase assay (direct enzyme inhibition, synthetic primer, 3H-labelled substrate); type: biochemical; details: figure 1
T2 construct: transcriptase inverse du virus HIV 1
From the text: Le trichlorhydrate de BD 40 (sel ci-après appelé "BD 40"), obtenu par réaction de la base BD 40 en phase aqueuse avec une solution aqueuse d'acide chlorhydrique, a été testé dans un premier temps en tant qu'inhibiteur direct sur l'activité enzymatique de la transcriptase inverse du virus HIV 1.
L'activité enzymatique a été testée en utilisant une amorce synthétique et un substrat radiomarqué au H³ "in vitro" en présence de différentes doses du BD 40. La quantité de matériel radiomarqué précipité, exprimée en coups par minute, est proportionnelle à l'activité de la transcriptase inverse.
Les résultats obtenus figurent sur le graphe de la figure 1, sur laquelle on a porté en ordonnées, la quantité de matériel radiomarqué en coups par minute (RT en cpm) et en abscisses les quantités de BD 40 testées.

virus HIV = type: cell-based, virus HIV 1; details: for production virale des lymphocytes périphériques infectés: added at the time of infection, figure 3
From the text: Ce test a été réalisé comme suit.
Les lymphocytes humains ont été isolés sur gradient de Ficoll à partir du sang périphérique d'un donneur séronégatif. Préalablement au traitement, ils ont été stimulés par la phytohémagglutinine p (PHA-p) (Difco) pendant 3 jours. Ils sont ensuite maintenus en culture dans un milieu RPMI sans glutamine (GIBCO, Réf. 041.01870M, contenant 10 % de sérum de veau fétal (FLOW, Réf. 29.101.711), 1 % de glutamine (GIBCO, Réf. 043.05030H), 1 % d'une solution d'antibiotiques (GIBCO, PSN, Réf. 043.05640H), 10 % d'une solution d'interleukine 2 (BIOTEST, Réf. 81.1020), et […] de polybrène (SIGMA, Réf. 36F.3686 P. 4515).
Du trichlorhydrate de BD 40 (sel ci-après appelé BD 40) est ajouté aux doses non toxiques de 3,2 jusqu'à 25 ng/ml en même temps que l'infection virale. La production du virus dans le surnageant est mesurée par l'activité réverse transcriptase après concentration des cellules infectées par centrifugation.
Les résultats obtenus figurent sur les courbes de la figure 3 qui donne l'activité de transcriptase inverse (RT en ordonnées) en fonction du temps pour des quantités données de BD 40.

[6] = system: lignée cellulaire murine D55; details: 24 h treatment, D55 cells; read-out: concentrations affecting viabilité et morphologie des cellules de manière irréversible; cited from earlier work
[7] = mean of 7 cases, normalised values

## CCN(CC)CCCNc1nccc2c(C)c3[nH]c4ccncc4c3cc12 [BD 40]
Virus HIV 1 [1]; added to the culture only after infection (Fig. 2c)
  production virale de lymphocytes infectés: un pic de production virale qui reste d'un niveau plus faible que le pic obtenu en l'absence d'inhibiteur
Virus HIV 1 [1]; present also during the culture after infection (Fig. 2b)
  production virale de lymphocytes infectés: Le même résultat
Virus HIV 1 [1]; present during 1 h preincubation before infection (Fig. 2a)
  production virale de lymphocytes infectés: inhiber totalement la production virale
[2]
  MCC: ≥ 100 nM
[3]; 50, 200, 250 and 300 mg/m2/administration, patients
  clinical tolerance of the doses: cliniquement parfaitement tolérées
[3]; [7]
  RT au J4 de la cure précédente: 9,7 % de la valeur la plus élevée mesurée pour le malade considéré
  RT au J15 de la cure considérée: 62,4 % de la valeur la plus élevée mesurée pour le malade considéré
  RT au J15 de la cure précédente: 72,3 % de la valeur la plus élevée mesurée pour le malade considéré
[3]; out of 8 evaluable courses, patients with AIDS and Kaposi sarcoma, infusion 50-300 mg/m²/jour, 3-day courses every 3 weeks
  cas où la valeur au jour 4 est inférieure aux valeurs qui l'encadrent (inhibition nette de la réverse transcriptase): 7 cas
[3]; out of the 7 cases with inhibition
  cas où l'activité réverse transcriptase est ramenée à 0 (ou à une valeur négligeable): 4
Virus HIV 1 [4]
  toxicity of doses for the macrophage culture: non toxiques
Virus HIV 1 [4]; 10 and 15 ng/ml, added at the time of infection
  retard d'apparition du virus: 2 jours
Virus HIV 1 [4]; macrophages treated with BD 40, RT activity after coculture
  réplication du virus: inhibition partielle
[5]; BD 40 concentrations 1 mg/ml to 50 µg/ml
  activité de la transcriptase inverse du virus HIV: totalement inhibée
[5]; from BD 40 concentration 5 µg/ml
  activité de l'enzyme: du même niveau qu'en l'absence d'inhibiteur
Virus HIV
  toxicity of doses for the lymphocyte culture: non toxiques
Virus HIV; 25 ng/ml to 6,25 ng/ml
  production virale des lymphocytes périphériques infectés: inhibition très importante
Virus HIV; 3,12 ng/ml
  production virale des lymphocytes périphériques infectés: un pic de production virale apparait d'un niveau inférieur à celui obtenu en l'absence d'inhibiteur
Virus HIV; highest non-toxic doses, up to day 42
  virus produit: absence totale de virus produit jusqu'au jour 42
[6]
  MCC: ≥ 100 nM
